The assay has as its target T1, Endothelial lipase (EL) (Homo sapiens, UniProt Q9Y5X9).
T1 construct: HT-1080 cells, which were transformed by RAGE technology (Athersys) to overexpress endogenous EL; endogenous in cells; conditioned medium used as the enzyme source
T1 sequence (Q9Y5X9 21-500): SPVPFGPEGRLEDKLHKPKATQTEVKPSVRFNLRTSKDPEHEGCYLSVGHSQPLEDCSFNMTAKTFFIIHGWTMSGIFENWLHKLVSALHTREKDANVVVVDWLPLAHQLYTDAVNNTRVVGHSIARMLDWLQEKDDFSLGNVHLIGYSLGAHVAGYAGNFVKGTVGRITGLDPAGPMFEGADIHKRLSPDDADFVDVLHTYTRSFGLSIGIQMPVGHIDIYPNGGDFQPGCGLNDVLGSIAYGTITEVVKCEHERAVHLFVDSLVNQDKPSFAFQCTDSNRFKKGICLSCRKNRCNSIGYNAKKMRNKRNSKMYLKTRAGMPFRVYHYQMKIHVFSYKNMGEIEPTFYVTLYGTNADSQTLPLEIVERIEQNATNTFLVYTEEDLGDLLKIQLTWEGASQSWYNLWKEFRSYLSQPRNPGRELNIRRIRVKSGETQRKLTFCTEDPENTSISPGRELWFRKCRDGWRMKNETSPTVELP
Briefly: Endothelial lipase (EL) enzymatic assay with fluorescent substrate A10070 in DMPG vesicles. The class given is biochemical. In short, it runs like this:
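EL activity was followed as a fluorescence rate (488/530 nm, reads every 20 s for 10 min, linear slope) on A10070 doped at 0.05 mole fraction into sonicated DMPG vesicles. Compound was first incubated 20 min at 37 °C, pH 8.0 HEPES/CaCl2 buffer, with conditioned media from EL-overexpressing HT-1080 cells.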

The mark [1] stands for this setting: range observed in the EL assay, read-out: EL IC50 values.
The mark [2] stands for this setting: conditioned media from HT-1080 cells overexpressing endogenous EL, 20 min preincubation at 37° C., read-out: EL IC50.

Molecules are shown by their SMILES. Where two headings read alike, the source gives them in different places.

Take `O=C(N[C@H]1CC[C@@H](c2ccccc2)CC1)c1[nH]c(=O)[nH]c(=O)c1NC1CCN(Cc2ccccc2)C1` (stereo partly drawn) [Example 223, 5-(1-benzylpyrrolidin-3-ylamino)-2,6-dioxo-N-(cis-4-phenylcyclohexyl)-1,2,3,6-tetrahydropyrimidine-4-carboxamide]: the IC50 under setting [1] was not above 10 µM.
For `Nc1c(C(=O)N[C@H]2CC[C@H](c3ccccc3)C2)[nH]c(=O)[nH]c1=O` [Example 76, 5-amino-2,6-dioxo-N-((1S,3S)-3-phenylcyclopentyl)-1,2,3,6-tetrahydropyrimidine-4-carboxamide], the IC50 under setting [1] is not above 10 µM.
In the case of `Nc1c(C(=O)N[C@@H]2CCC(c3ccc(Cl)c(Cl)c3)c3ccccc32)[nH]c(=O)[nH]c1=O` (single isomer, unassigned) [Example 37], under setting [1], the IC50 was not above 10 µM.
Turning to `Nc1c(C(=O)NC2CCCC(c3ccccc3)C2)[nH]c(=O)[nH]c1=O` (centres unmarked) [Example 101, 5-amino-2,6-dioxo-N-(3-phenylcyclohexyl)-1,2,3,6-tetrahydropyrimidine-4-carboxamide], under setting [1], the IC50 is not above 10 µM.
For `Nc1c(C(=O)NC2CCC(c3ccccc3)c3ccccc32)[nH]c(=O)[nH]c1=O` (centres unmarked) [Example 6, 5-amino-2,6-dioxo-N-(4-phenyl-1,2,3,4-tetrahydronaphthalen-1-yl)-1,2,3,6-tetrahydropyrimidine-4-carboxamide], the IC50 under setting [1] was not above 10 µM.
For the compound `Nc1c(C(=O)N[C@@H]2CCc3cc(Oc4ccccc4)ccc32)[nH]c(=O)[nH]c1=O` [Example 89, (R)-5-amino-2,6-dioxo-N-(5-phenoxy-2,3-dihydro-1H-inden-1-yl)-1,2,3,6-tetrahydropyrimidine-4-carboxamide], under setting [1], the IC50 was not above 10 µM.
For the compound `Nc1c(C(=O)NC2CCC(c3ccc(OCc4ccccc4)cc3)C2)[nH]c(=O)[nH]c1=O` (single isomer, unassigned) [Example 151, 5-amino-N-(3-(4-(benzyloxy)phenyl)cyclopentyl)-2,6-dioxo-1,2,3,6-tetrahydropyrimidine-4-carboxamide], the IC50 under setting [1] is not above 10 µM.
`Cn1c(=O)[nH]c(C(=O)N[C@H]2CC[C@@H](c3ccccc3)CC2)c(O)c1=O` [Example 242, 5-hydroxy-1-methyl-2,6-dioxo-N-(cis-4-phenylcyclohexyl)-1,2,3,6-tetrahydropyrimidine-4-carboxamide]: the IC50 under setting [1] is not above 10 µM.
Consider `CN(C)c1cccc(-c2ccc([C@@H]3CC[C@H](NC(=O)c4[nH]c(=O)[nH]c(=O)c4N)C3)cc2)c1` [Example 166, 5-amino-N-((1S,3R)-3-(3′-(dimethylamino)biphenyl-4-yl)cyclopentyl)-2,6-dioxo-1,2,3,6-tetrahydropyrimidine-4-carboxamide], for which, under setting [1], the IC50 was not above 10 µM.
On to `Nc1c(C(=O)N[C@@H]2CC[C@H](c3ccc(-c4cnn(CCN5CCOCC5)c4)cc3)C2)[nH]c(=O)[nH]c1=O` [Example 164, 5-amino-N-((1R,3S)-3-(4-(1-(2-morpholinoethyl)-1H-pyrazol-4-yl)phenyl)cyclopentyl)-2,6-dioxo-1,2,3,6-tetrahydropyrimidine-4-carboxamide], for which the IC50 reads like this: under setting [2], 0.788 µM; under setting [1], not above 10 µM.
With `O=C(N[C@H]1CC[C@@H](c2ccccc2)CC1)c1[nH]c(=O)[nH]c(=O)c1NCc1ccccc1CO` [Example 212, 5-(2-(hydroxymethyl)benzylamino)-2,6-dioxo-N-(cis-4-phenylcyclohexyl)-1,2,3,6-tetrahydropyrimidine-4-carboxamide], the IC50 under setting [1] is not above 10 µM.
The same measure, in the same setting: to `Nc1c(C(=O)N[C@H]2CCCc3ccc(F)cc32)[nH]c(=O)[nH]c1=O` [Example 41, (S)-5-amino-N-(7-fluoro-1,2,3,4-tetrahydronaphthalen-1-yl)-2,6-dioxo-1,2,3,6-tetrahydropyrimidine-4-carboxamide] belongs not above 10 µM; to `CC(C)(C)OC(=O)N1CCC(NC(=O)c2[nH]c(=O)[nH]c(=O)c2N)C1` (centres unmarked) [Example 62, tert-butyl 3-(5-amino-2,6-dioxo-1,2,3,6-tetrahydropyrimidine-4-carboxamido)pyrrolidine-1-carboxylate], not above 10 µM.
As for `Nc1c(C(=O)N[C@H]2CC[C@@H](c3ccc(-c4ccccc4)cc3)C2)[nH]c(=O)[nH]c1=O` [Example 167, 5-amino-N-((1S,3R)-3-(biphenyl-4-yl)cyclopentyl)-2,6-dioxo-1,2,3,6-tetrahydropyrimidine-4-carboxamide], the IC50 under setting [1] is not above 10 µM.
As for `O=C(N[C@H]1CC[C@@H](c2ccccc2)CC1)c1[nH]c(=O)[nH]c(=O)c1NCCO` [Example 217, 5-(2-hydroxyethylamino)-2,6-dioxo-N-(cis-4-phenylcyclohexyl)-1,2,3,6-tetrahydropyrimidine-4-carboxamide], the concentration for half-maximal inhibition (IC50) under setting [1] was not above 10 µM.
On to `Nc1c(C(=O)N[C@@H]2CC[C@@H](C(=O)N[C@H]3CC[C@@H](c4cccc(C(F)(F)F)c4)CC3)C2)[nH]c(=O)[nH]c1=O` [Example 150, 5-amino-2,6-dioxo-N-((1R,3R)-3-(cis-4-(3-(trifluoromethyl)phenyl)cyclohexylcarbamoyl)cyclopentyl)-1,2,3,6-tetrahydropyrimidine-4-carboxamide], for which, under setting [1], the IC50 was not above 10 µM.
On to `CN1CCC(Nc2c(C(=O)N[C@H]3CC[C@@H](c4ccccc4)CC3)[nH]c(=O)[nH]c2=O)CC1` [Example 230, 5-(1-methylpiperidin-4-ylamino)-2,6-dioxo-N-(cis-4-phenylcyclohexyl)-1,2,3,6-tetrahydropyrimidine-4-carboxamide], for which the IC50 under setting [1] is not above 10 µM.
As to `Nc1c(C(=O)N[C@@H]2CCN(c3ccccc3)C2)[nH]c(=O)[nH]c1=O` [Example 191, (R)-5-amino-2,6-dioxo-N-(1-phenylpyrrolidin-3-yl)-1,2,3,6-tetrahydropyrimidine-4-carboxamide], under setting [1], the IC50 is not above 10 µM.
For `Nc1c(C(=O)N[C@@H]2CCCc3cc(OCc4ccccc4)ccc32)[nH]c(=O)[nH]c1=O` [Example 83, (R)-5-amino-N-(6-(benzyloxy)-1,2,3,4-tetrahydronaphthalen-1-yl)-2,6-dioxo-1,2,3,6-tetrahydropyrimidine-4-carboxamide], under setting [1], the IC50 is not above 10 µM.
On the same count and under the same terms, to `O=C(N[C@H]1CC[C@@H](c2ccccc2)C1)c1[nH]c(=O)[nH]c(=O)c1O` [Example 273, 5-hydroxy-2,6-dioxo-N-((1S,3R)-3-phenylcyclopentyl)-1,2,3,6-tetrahydropyrimidine-4-carboxamide] belongs not above 10 µM.
As to `Nc1c(C(=O)N[C@H]2CC[C@@H](c3ccccc3)CC2)n(-c2cc(F)cc(C(F)(F)F)c2)c(=O)[nH]c1=O` [Example 203, 5-Amino-3-(3-fluoro-5-(trifluoromethyl)phenyl)-2,6-dioxo-N-(cis-4-phenylcyclohexyl)-1,2,3,6-tetrahydropyrimidine-4-carboxamide], the IC50 is, setting by setting: under setting [2], 6.22 µM; under setting [1], not above 10 µM.
Consider `O=C(N[C@@H]1CCCc2c(OCC3CCCC3)cccc21)c1[nH]c(=O)[nH]c(=O)c1O` [Example 291, (R)-N-(5-(cyclopentylmethoxy)-1,2,3,4-tetrahydronaphthalen-1-yl)-5-hydroxy-2,6-dioxo-1,2,3,6-tetrahydropyrimidine-4-carboxamide], for which the IC50 under setting [1] is not above 10 µM.
As to `O=C(N[C@H]1CC[C@@H](c2ccccc2)CC1)c1[nH]c(=O)[nH]c(=O)c1NCc1cc(F)cc(C(F)(F)F)c1` [Example 236, 5-(3-fluoro-5-(trifluoromethyl)benzylamino)-2,6-dioxo-N-((1s,4s)-4-phenylcyclohexyl)-1,2,3,6-tetrahydropyrimidine-4-carboxamide], the IC50 under setting [1] is not above 10 µM.
With `O=C(NC1CCCc2c(-c3ccccc3)cccc21)c1[nH]c(=O)[nH]c(=O)c1O` (centres unmarked) [Example 285, 5-hydroxy-2,6-dioxo-N-(5-phenyl-1,2,3,4-tetrahydronaphthalen-1-yl)-1,2,3,6-tetrahydropyrimidine-4-carboxamide], the 50% inhibitory concentration (IC50) under setting [1] is not above 10 µM.
Still for that read-out and setting: next, `CCOC(=O)N1CCC(NC(=O)c2[nH]c(=O)[nH]c(=O)c2N)c2ccccc21` (single isomer, unassigned; enantiomer b) [Example 193, Ethyl 4-(5-amino-2,6-dioxo-1,2,3,6-tetrahydropyrimidine-4-carboxamido)-3,4-dihydroquinoline-1(2H)-carboxylate (Enantiomer B)]: not above 10 µM; `Nc1c(C(=O)N[C@H]2CC[C@@H](c3ccc(-c4ccccc4CO)cc3)C2)[nH]c(=O)[nH]c1=O` [Example 174, 5-amino-N-((1S,3R)-3-(2′-(hydroxymethyl)biphenyl-4-yl)cyclopentyl)-2,6-dioxo-1,2,3,6-tetrahydropyrimidine-4-carboxamide]: not above 10 µM; `COc1ccc2c(c1)C(NC(=O)c1[nH]c(=O)[nH]c(=O)c1N)CCC2` (single isomer, unassigned; enantiomer b) [Example 200, 5-amino-N-(7-methoxy-1,2,3,4-tetrahydronaphthalen-1-yl)-2,6-dioxo 1,2,3,6-tetrahydropyrimidine-4-carboxamide (Enantiomer B)]: not above 10 µM.

Broadly, the IC50 is the concentration that gives 50% inhibition.

The values are drawn from patent US9199946B2, “Pyrimidinone carboxamide inhibitors of endothelial lipase” (BRISTOL-MYERS SQUIBB COMPANY, priority 2012, dated 2015).
